In paper PMC3081663 (Journal of Natural Products, 2011):

Experiments:
[1] = tested on: phosphorylation of histone H2AX in MCF7 cells; test: In-cell Western assay for phosphorylation of histone H2AX; type: cell-based; settings: 4 h
MCF-7 = settings: MCF7 cells, 72 h treatment
[2] = tested on: phosphorylation of histone H2AX in HCT-15 cells; test: In-cell Western assay for phosphorylation of histone H2AX; type: cell-based; settings: 4 h of drug treatment
panel of cell lines = test: Cytotoxicity in a panel of cell lines; type: cell-based
MDR1/MRP in HCT-15 cells = type: cell-based
supercoiled plasmid DNA = test: In vitro DNA damage assay; type: biochemical
[3] = tested on: cell lines in which MDR1 was overexpressed; settings: MDR1 overexpressed by drug selection or transfection; cited from earlier work
[4] = tested on: human colon carcinoma cell line LS174T; settings: LS174T subcutaneously implanted in nude mice; cited from earlier work

CC(C)(O)CCc1ccc(O)c2c(=O)c3c(O)c4c(cc3oc12)O[C@H]1OCC[C@@]41O [dihydro-austocystin D]
induction of the DNA damage response (phosphorylation of histone H2AX) [1]: very weak | cytotoxicity (growth inhibition) (MCF-7): very weak

CC[C@@]1(O)C(=O)OCc2c1cc1n(c2=O)Cc2cc3ccccc3nc2-1 [camptothecin]
induction of phosphorylation of histone H2AX [2]: induced dose-dependent phosphorylation of histone H2AX

CC(C)(O)CCc1ccc(O)c2c(=O)c3c(O)c4c(cc3oc12)O[C@H]1OC=C[C@@]41O [austocystin D]
GI50 (panel of cell lines; 72 h, read-out: GI50 values for three cell lines): < 10 nM | selectivity between sensitive and resistant cell lines (panel of cell lines; 72 h cytotoxicity panel): over 1000 fold | inhibition of calcein-AM efflux (retention of calcein) (MDR1/MRP in HCT-15 cells): inhibited efflux of calcein-AM | induction of phosphorylation of histone H2AX [2]: induced the phosphorylation of histone H2AX | requirement for increased nicked DNA (supercoiled plasmid DNA; 1 μM austocystin D with different additives): only in the presence of both liver microsomes and the NADPH regenerating system | concentration causing direct DNA damage (nicking of supercoiled plasmid DNA) (supercoiled plasmid DNA; human liver microsomes and NADPH regenerating system, 4 h, 37 °C): 100 nM | fold more potent in cell lines in which MDR1 was overexpressed [3]: 20 fold | tumor growth in vivo [4]: inhibited the growth

bleomycin
induction of phosphorylation of histone H2AX [2]: induced dose-dependent phosphorylation of histone H2AX

COc1cccc2c1C(=O)c1c(O)c3c(c(O)c1C2=O)C[C@@](O)(C(=O)CO)C[C@@H]3O[C@H]1C[C@H](N)[C@H](O)[C@H](C)O1 [doxorubicin]
induction of phosphorylation of histone H2AX [2]: induced dose-dependent phosphorylation of histone H2AX

CC(=O)N1CCN(c2ccc(OCC3COC(Cn4ccnc4)(c4ccc(Cl)cc4Cl)O3)cc2)CC1 (centres unmarked) [ketoconazole]
effect on austocystin D cytotoxicity (HCT-15): fully prevented
